Where two headings read alike, the source gives them in different places.

The record followed here is patent EP4667464A1 (Cyrus Therapeutics Inc., priority 2023, dated 2024).

The target in test [1] is T1, SOS1 (Homo sapiens, UniProt Q07889).
T1 construct: HIS-SOS1cat (160 nM; Cytoskeleton, US); His (N); purchased Cytoskeleton
T1 sequence (Q07889 564-1049 limits assumed): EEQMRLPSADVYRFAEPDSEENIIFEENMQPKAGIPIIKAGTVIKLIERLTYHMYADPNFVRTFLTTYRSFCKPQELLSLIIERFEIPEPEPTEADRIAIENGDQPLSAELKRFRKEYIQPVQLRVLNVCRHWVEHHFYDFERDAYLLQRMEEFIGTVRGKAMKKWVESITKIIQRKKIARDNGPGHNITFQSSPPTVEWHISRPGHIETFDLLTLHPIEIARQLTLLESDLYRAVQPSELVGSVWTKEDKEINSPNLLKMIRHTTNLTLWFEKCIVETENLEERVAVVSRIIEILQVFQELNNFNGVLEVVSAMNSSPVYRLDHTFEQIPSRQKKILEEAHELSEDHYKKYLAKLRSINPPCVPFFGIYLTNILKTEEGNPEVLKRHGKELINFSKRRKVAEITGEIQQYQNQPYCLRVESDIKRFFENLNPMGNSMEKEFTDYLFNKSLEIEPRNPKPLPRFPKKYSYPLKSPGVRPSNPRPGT
Kind of test: SOS-catalyzed nucleotide exchange assay (HTRF, SOS1-mediated GTP loading of KRAS G12D). In kind it is biochemical. Here is the method: SOS1 activity was measured by SOS1-mediated GTP loading quantification of KRAS^G12D. GTP loaded KRAS^G12D was detected by HTRF (Homogeneous Time Resolved Fluorescence) using anti-GST terbium (Cisbio, France) as a donor and a fluorescence GTP analogue (EDA-GTP-DY-647P1, [DY-647P1 labeled 2'/3'-O-(2-aminoethyl-carbamoyl)guanosine-5'-triphosphate (Jena bioscience, Germany)]) as an acceptor.
KRAS^G12D working solution was prepared by adding equal amounts of GST-KRAS^G12D (100 nM) and anti-GST-terbium (2 nM; Cisbio, France) to the assay buffer and culturing on ice for 10 minutes. […] Control solution was prepared by adding equal volumes of EDA-GTP-DY-647P1 and the assay buffer for normalization control to exclude GEF-independent GTP loading and background signals.
10 uL of the KRAS^G12D solution was added to each well and incubated for 30 minutes at room temperature while shaking. HTRF was measured using a Thermo Varioskan (excitation 334 nm, emission 665 nm). The IC50 of each inhibitor was analyzed using Graphad Prism.
On the technique in general: Time-resolved FRET reads energy transfer from a long-lived donor to a nearby acceptor.

Test [2] has as its target T2, KRAS G12C::SOS1 (Homo sapiens, UniProt Q07889).
T2 construct: purchased CISBIO 64KRASG12PEH
T2 sequence (Q07889 1-1333): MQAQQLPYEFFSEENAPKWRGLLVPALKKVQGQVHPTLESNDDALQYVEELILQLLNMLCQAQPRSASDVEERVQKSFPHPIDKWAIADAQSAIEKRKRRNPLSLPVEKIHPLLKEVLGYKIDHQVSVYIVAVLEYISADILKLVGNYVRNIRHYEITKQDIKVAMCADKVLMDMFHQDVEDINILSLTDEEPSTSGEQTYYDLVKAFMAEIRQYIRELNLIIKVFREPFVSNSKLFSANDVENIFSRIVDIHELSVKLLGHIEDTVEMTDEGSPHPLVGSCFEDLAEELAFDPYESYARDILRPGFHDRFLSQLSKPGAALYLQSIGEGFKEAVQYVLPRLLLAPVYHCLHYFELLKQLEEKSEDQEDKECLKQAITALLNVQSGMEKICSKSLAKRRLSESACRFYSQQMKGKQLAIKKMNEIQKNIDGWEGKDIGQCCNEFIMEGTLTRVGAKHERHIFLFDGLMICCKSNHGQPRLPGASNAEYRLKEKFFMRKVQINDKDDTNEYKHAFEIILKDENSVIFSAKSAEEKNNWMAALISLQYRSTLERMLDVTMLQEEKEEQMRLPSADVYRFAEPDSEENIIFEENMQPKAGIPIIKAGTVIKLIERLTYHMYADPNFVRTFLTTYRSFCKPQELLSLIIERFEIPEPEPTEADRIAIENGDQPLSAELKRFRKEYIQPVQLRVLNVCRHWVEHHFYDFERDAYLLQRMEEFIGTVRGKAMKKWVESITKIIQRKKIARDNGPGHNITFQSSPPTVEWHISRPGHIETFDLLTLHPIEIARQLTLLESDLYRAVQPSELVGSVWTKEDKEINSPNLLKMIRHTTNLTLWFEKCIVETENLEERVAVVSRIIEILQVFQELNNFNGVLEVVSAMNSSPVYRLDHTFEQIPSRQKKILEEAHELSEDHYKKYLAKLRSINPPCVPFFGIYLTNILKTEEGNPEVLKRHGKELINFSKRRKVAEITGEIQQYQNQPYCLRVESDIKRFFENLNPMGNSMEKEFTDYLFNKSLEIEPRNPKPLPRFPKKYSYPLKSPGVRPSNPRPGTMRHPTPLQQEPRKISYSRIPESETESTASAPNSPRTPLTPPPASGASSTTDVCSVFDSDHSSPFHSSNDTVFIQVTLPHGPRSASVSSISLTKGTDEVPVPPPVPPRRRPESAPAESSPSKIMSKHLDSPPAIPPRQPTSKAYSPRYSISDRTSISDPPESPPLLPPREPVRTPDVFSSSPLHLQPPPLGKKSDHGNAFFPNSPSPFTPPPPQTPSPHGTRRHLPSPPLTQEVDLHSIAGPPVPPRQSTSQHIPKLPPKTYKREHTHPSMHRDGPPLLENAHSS
As to the kind of experiment: KRAS G12C::SOS1 protein-protein interaction (PPI) inhibition assay (HTRF). In kind it is binding. The protocol:
Protein-protein interaction between SOS1 and KRAS^G12c was detected using KRAS G12C/SOS1 binding kit from CISBIO (64KRASG12PEH, CISBIO, FRANCE) according to the manufacturer's assay method. Briefly, the maximum concentration of an inhibitor sample was set to be 3 µM, and the inhibitor sample was diluted 7 times by 1/3, and samples having a total of 8 concentrations were prepared. In HTRF (Homogeneous Time-Resolved Fluorescence) exclusive 96-well low-volume white plate (66PL96005, CISBIO, FRANCE), 2 µL of an inhibitor sample prepared for each concentration, 5 µL of a mixed solution of Tag1 labeled KRAS^G12c protein and GTP diluted with the dilution solution provided by the manufacturer, and 5 µL of Tag2 labeled SOS1 protein were mixed, and added with 8 µL of a diluted solution where anti-Tag1 KRAS^G12C XL665 (HTRF acceptor) labeled antibody and anti-Tag2 SOS1 Terbium cryptate (HTRF donor) labeled antibody were mixed in an equal ratio and cultured at room temperature for 2 h.

The mark [3] stands for this setting: GST-KRAS G12D, HIS-SOS1cat, compound 128 pM to 10 µM, read-out: SOS-catalyzed nucleotide exchange assay.
[4] abbreviates: 8 concentrations from 3 µM, three replicates, read-out: KRAS G12C::SOS1 PPI.

`C[C@H](O)c1cc(C(=O)N[C@H](C)c2cccc(C(F)(F)F)c2F)nn(-c2cncc(-c3cnnn3C)c2)c1=O` (single isomer, unassigned) [Example 10]: the IC50 in test [1] (setting [3]) and in test [2] (setting [4]) was 50 to 150 nM each time.

For `C[C@@H](NC(=O)c1ccc(=O)n(-c2cncc(-c3cnnn3[C@H]3CC3(F)F)c2)n1)c1cccc(C(F)(F)CO)c1F` (single isomer, unassigned) [Example 25], the IC50 in test [1] and in test [2] was less than 50 nM each time.

Consider `C[C@@H](NC(=O)c1ccc(=O)n(-c2cncc(-c3cnnn3[C@@H]3CC3(F)F)c2)n1)c1cccc(C(F)(F)CO)c1F` (single isomer, unassigned) [Example 26], for which the IC50 in test [1] and in test [2] was less than 50 nM throughout.

For the molecule `C[C@@H](NC(=O)c1ccc(=O)n(-c2cncc(-c3cnnn3C)c2)n1)c1cccc(C(F)(F)CO)c1Cl` [Example 1-3, N-[(1R)-1-[2-chloro-3-(1,1-difluoro-2-hydroxy-ethyl)phenyl]ethyl]-1-[5-(3-methyltriazol-4-yl)-3-pyridyl]-6-oxo-pyridazine-3-carboxamide], the IC50 in test [1] (setting [3]) and in test [2] (setting [4]) was 50 to 150 nM in each case.

For `C[C@@H](NC(=O)c1ccc(=O)n(-c2cncc(-c3cnnn3C)c2)n1)c1cccc(C(F)(F)CF)c1F` [Example 1-8, (R)-N-(1-(2-fluoro-3-(1,1,2-trifluoroethyl)phenyl)ethyl)-1-(5-(1-methyl-1H-1,2,3-triazol-5-yl)pyridin-3-yl)-6-oxo-1,6-dihydropyridazine-3-carboxamide], the results for the IC50 in test [1] (setting [3]) and in test [2] (setting [4]) were less than 50 nM and 50 to 150 nM, respectively.

For `COCC(F)(F)c1cccc([C@@H](C)NC(=O)c2ccc(=O)n(-c3cncc(-c4cnnn4C)c3)n2)c1F` [Example 1-10, (R)-N-(1-(3-(1,1-difluoro-2-methoxyethyl)-2-fluorophenyl)ethyl)-1-(5-(1-methyl-1H-1,2,3-triazol-5-yl)pyridin-3-yl)-6-oxo-1,6-dihydropyridazine-3-carboxamide], the IC50 in test [1] (setting [3]) is less than 50 nM; in test [2] (setting [4]) it was 50 to 150 nM.

On to `CCn1nncc1-c1cncc(-n2nc(C(=O)N[C@H](C)c3cccc(C(F)(F)CO)c3F)cc(C)c2=O)c1` [Example 1-13, N-[(1R)-1-[3-(1,1-difluoro-2-hydroxy-ethyl)-2-fluoro-phenyl]ethyl]-1-[5-(3-ethyltriazol-4-yl)-3-pyridyl]-5-methyl-6-oxo-pyridazine-3-carboxamide], for which the IC50 in test [1] (setting [3]) and in test [2] (setting [4]) was less than 50 nM in each case.

In the case of `CCn1nccc1-c1cncc(-n2nc(C(=O)N[C@H](C)c3cccc(C(F)(F)CO)c3F)ccc2=O)c1` [Example 1-14, N-[(1R)-1-[3-(1,1-difluoro-2-hydroxy-ethyl)-2-fluoro-phenyl]ethyl]-1-[5-(2-ethylpyrazol-3-yl)-3-pyridyl]-6-oxo-pyridazine-3-carboxamide], the IC50 in test [1] (setting [3]) and in test [2] (setting [4]) was more than 150 nM each time.

As for `CCn1nncc1-c1cncc(-n2nc(C(=O)N[C@H](C)c3cccc(C(F)(F)CO)c3F)ccc2=O)c1` [Example 1-18, N-[(1R)-1-[3-(1,1-difluoro-2-hydroxy-ethyl)-2-fluoro-phenyl]ethyl]-1-[5-(3-ethyltriazol-4-yl)-3-pyridyl]-6-oxo-pyridazine-3-carboxamide], the IC50 in test [1] (setting [3]) and in test [2] (setting [4]) was less than 50 nM each time.

Consider `C[C@@H](NC(=O)c1ccc(=O)n(-c2cnnc(-c3ccnn3C)c2)n1)c1cccc(C(F)(F)F)c1F` [Example 1-19, N-[(1R)-1-[2-fluoro-3-(trifluoromethyl)phenyl]ethyl]-1-[6-(2-methylpyrazol-3-yl)pyridazin-4-yl]-6-oxo-pyridazine-3-carboxamide], for which the IC50 in test [1] (setting [3]) and in test [2] (setting [4]) was more than 150 nM throughout.

As to `Cc1cc(C(=O)N[C@H](C)c2cccc(C(F)(F)F)c2F)cn(-c2cncc(-c3cnnn3C)c2)c1=O` [Example 1-21, (R)-N-(1-(2-fluoro-3-(trifluoromethyl)phenyl)ethyl)-3-methyl-5'-(1-methyl-1H-1,2,3-triazol-5-yl)-2-oxo-2H-[1,3'-bipyridine]-5-carboxamide], the IC50 in test [1] (setting [3]) and in test [2] (setting [4]) was less than 50 nM throughout.
